# Results as given in article PMC5129993, “Everolimus induces Met inactivation by disrupting the FKBP12/Met complex” (Oncotarget, 2016).
# pIC50: −log10 of the molar value.
# Experiments:
# phospho-Met = experiment: Western blot analysis of Met phosphorylation in human cancer cell lines; format: cell-based; conditions: 24 hours; for Met phosphorylation: 0.5 μM
# Protocol: (§1) Total protein extracts obtained from cell cultures or tumor specimens were resolved by 4-15% SDS-PAGE and probed with anti-human, polyclonal pMet Y1349, polyclonal Met, monoclonal pp70S6K T412 and p70S6K (Merck-Millipore Darmstadt, Germany), monoclonal actin (Sigma-Aldrich, Milan, Italy), monoclonal FKBP12, polyclonal mTOR, Raptor, and Rictor. Co-immunoprecipitation analyses were performed with anti-Met; membranes were blotted with anti-FKBP12. The total lysate from 786-O, 786-O EveR and HCT116 cells served as positive control. Immunoreactive proteins were visualized by enhanced chemiluminescence (Pierce, Rockford, IL, USA). Densitometry was performed with Image J software (NIH, Bethesda, MD, USA).
# phospho-p70S6K = experiment: Western blot analysis of p70S6K phosphorylation in human cancer cell lines; format: cell-based; conditions: 24 hours
# Protocol: as §1
# Met D1228H = molecular target: T1, Met D1228H (Homo sapiens, UniProt P08581, D1228H); experiment: In vitro Met kinase inhibition assay (ProQinase, radiometric 33PanQinase); format: biochemical
# T1 construct: purchased ProQinase GmbH (screening service)
# Protocol: (§2) In vitro Met kinase inhibition assay equilibrated using NAMD2.8 [Phillips JC, J Comput Chem.
# (§3) The Met kinase inhibition by everolimus was analyzed 2005], and the final MD simulation was conducted applying […]
# (§4) ProQinase (ProQinase GmbH, Freiburg, Germany). Briefly, J Med Chem. 2013].
# (§5) -10 - trajectories. The complex was aligned on the Cα atoms of different concentrations (standard range: 3x10M–1x10 Met, while the backbone atoms Root-mean-square deviation 5M; semilog dilutions) against human recombinant wt
# (§6) Met and nine Met mutant protein kinases, and IC values (RMSD) of FKBP12 was measured and used to cluster the 50 trajectories. The cluster analysis was performed using ptraj […]
# (§7) All assays were Å. Finally, the representative structure of the most populated performed at the corresponding apparent ATP Km of each cluster was choosen as the final Met/FKBP12 complex. […]
# Met F1200I = molecular target: T2, Met F1200I (Homo sapiens, UniProt P08581, F1200I); experiment: as above; format: biochemical
# T2 construct: purchased ProQinase GmbH (screening service)
# Protocol: as §2, §3, §4, §5, §6, §7
# Met M1250T = molecular target: T3, Met M1250T (Homo sapiens, UniProt P08581, M1250T); experiment: as above; format: biochemical
# T3 construct: purchased ProQinase GmbH (screening service)
# Protocol: as §2, §3, §4, §5, §6, §7
# Met Y1230A = molecular target: T4, Met Y1230A (Homo sapiens, UniProt P08581, Y1230A); experiment: as above; format: biochemical
# T4 construct: purchased ProQinase GmbH (screening service)
# Protocol: as §2, §3, §4, §5, §6, §7
# Met Y1230D = molecular target: T5, Met Y1230D (Homo sapiens, UniProt P08581, Y1230D); experiment: as above; format: biochemical
# T5 construct: purchased ProQinase GmbH (screening service)
# Protocol: as §2, §3, §4, §5, §6, §7
# Met Y1230H = molecular target: T6, Met Y1230H (Homo sapiens, UniProt P08581, Y1230H); experiment: as above; format: biochemical
# T6 construct: purchased ProQinase GmbH (screening service)
# Protocol: as §2, §3, §4, §5, §6, §7
# Met D1228N = molecular target: T7, Met D1228N (Homo sapiens, UniProt P08581, D1228N); experiment: as above; format: biochemical
# T7 construct: purchased ProQinase GmbH (screening service)
# Protocol: as §2, §3, §4
# (§8) -10 - trajectories. The complex was aligned on the Cα atoms of different concentrations (standard range: 3x10M–1x10 Met, while the backbone atoms Root-mean-square deviation 5M; semilog dilutions) against human recombinant wt […]
# as §7
# Met Wild-type = molecular target: T8, Met Wild-type (Homo sapiens, UniProt P08581); experiment: as above; format: biochemical; conditions: Met TK Wild-type; 0.3 nM to 10 μM, singlicate; apparent ATP Km
# T8 construct: purchased ProQinase GmbH (screening service)
# Protocol: as §2, §3, §4, §8, §7
# Met Y1230C = molecular target: T9, Met Y1230C (Homo sapiens, UniProt P08581, Y1230C); experiment: as above; format: biochemical
# T9 construct: purchased ProQinase GmbH (screening service)
# Protocol: as §2, §3, §4, §8, §7
# [1] = system: 786-O EveR (everolimus-resistant) cells; experiment: Cell density assay (MTT); format: cell-based; conditions: Homo sapiens, 786-0, data not shown, read-out: concentration causing 50% reduction of cell density
# Protocol: (§9) The percentage of cell density was determined using the 3-(4,5-dimethylthiazol-2-yl)-2,5-diphenyltetrazolium bromide (MTT) assay according to the manufacturer's instructions (Sigma-Aldrich, Milan, Italy). […]
# 786-O cells = experiment: Cell density assay (MTT); format: cell-based; conditions: Homo sapiens, 786-0, 72 hours, read-out: concentration causing 50% reduction of cell density
# Protocol: (§10) The percentage of cell density was determined using the 3-(4,5-dimethylthiazol-2-yl)-2,5-diphenyltetrazolium bromide (MTT) assay according to the manufacturer's instructions (Sigma-Aldrich, Milan, Italy).
# ACHN cells = experiment: Cell density assay (MTT); format: cell-based; conditions: Homo sapiens, 72 hours, read-out: concentration causing 50% reduction of cell density
# Protocol: as §10
# HCT116 cells = experiment: Cell density assay (MTT); format: cell-based; conditions: Homo sapiens, HCT-116; HCT116, data not shown; read-out: concentration causing 50% reduction of cell density
# Protocol: as §10
# MDA-MB-231 cells = experiment: Cell density assay (MTT); format: cell-based; conditions: Homo sapiens, MDA-MB-231, 72 hours, read-out: concentration causing 50% reduction of cell density
# Protocol: as §10
# MDA-MB-361 cells = experiment: Cell density assay (MTT); format: cell-based; conditions: Homo sapiens, MDA-MB-361, 72 hours, read-out: concentration causing 50% reduction of cell density
# Protocol: as §10
# NCI-H1975 cells = experiment: Cell density assay (MTT); format: cell-based; conditions: Homo sapiens, NCI-H1975, 72 hours, read-out: concentration causing 50% reduction of cell density
# Protocol: as §10
# PC-9 cells = experiment: Cell density assay (MTT); format: cell-based; conditions: Homo sapiens, PC-9, 72 hours, read-out: concentration causing 50% reduction of cell density
# Protocol: as §10
# [2] = system: T47D cells with Met M1268T mutant; experiment: Cell density assay (MTT), Met-transduced T47D; format: cell-based, human; conditions: Homo sapiens; T47D with Met M1268T; read-out: drug concentration causing 50% reduction of cell density
# Protocol: as §9
# (§11) (iii) an active conformation. The resulting selected Met [Follenzi A, Nat Genet. 2000]. […]
# (§12) We used the pRRL.sin.PPT.hCMV.GFP.
# (§13) Cα] at the 80 loop level (frame 13). To generate the Met/pre vector as control. […]
# [3] = system: T47D cells with Met Y1235D mutant; experiment: Cell density assay (MTT), Met-transduced T47D; format: cell-based, human; conditions: Homo sapiens; T47D with Met Y1235D; read-out: drug concentration causing 50% reduction of cell density
# Protocol: as §9, §11, §12, §13
# T47D cells with wt Met = experiment: Cell density assay (MTT), Met-transduced T47D; format: cell-based, human; conditions: Homo sapiens; T47D with wt Met; read-out: drug concentration causing 50% reduction of cell density
# Protocol: as §9, §11, §12, §13
# [4] = system: everolimus-resistant HCT116 cells; experiment: Subcutaneous murine colorectal cancer model (HCT116 xenograft)
# From the text: We subcutaneously xenografted everolimus-resistant HCT116 cells into 50 four- to six-week-old female BALB/c athymic nu+/nu+ (nude) mice (Charles River Laboratories, Milan, Italy). Forty animals were used to carry out the subcutaneous colorectal cancer model experiment; when tumors reached a mean volume of 1 cm^3, 10 animals were euthanized, tumors were divided into 2-mm-sized pieces and microsurgically implanted in the cecum of 40 Balb/C nude mice for the orthotopic experiment. See Supplementary Methods for further details about the surgical procedure and the treatment schedule. […]
# [5] = system: everolimus-resistant HCT116 cells; experiment: Orthotopic murine colorectal cancer model (HCT116 in cecum); format: in vivo, Balb/C nude mice; conditions: orthotopic HCT116, four weeks after tumor implantation
# Protocol: The cecum was then placed
# Seven days after implantation, […]
# p/6 x larger diameter x (smaller diameter)2. […]
# diameter was assessed with ultrasonography (VEVO,
# Committee. Primary tumors in the cecum were excised
# The final tumor was measured with a caliper surgical site was isolated in a sterile fashion.
# J Am Chem Soc. 2003; 125: 8827-8837.
# Uncoupling signal transducers from oncogenic MET 6.
# 2. […] 2000; 25: 217-222.
# Unbinding pathways from the glucocorticoid receptor shed 7. Michnick SW, Rosen MK, Wandless TJ, Karplus M, […]
# Solution structure of FKBP, a rotamase a naturally occurring, clinically relevant mutant receptor. J enzyme and receptor for FK506 and rapamycin. Science.
# 3. […] Mustafi SM, LeMaster DM, Hernández G. Differential […]
# cytoreductive antitumor activity in vivo.
# HADDOCK2.0 on the CAPRI targets. Proteins.
# 726-733. JR, Soisson SM, Lumb KJ. Structural basis for selective
# FKBP12/Met complex = molecular target: T10, FKBP12/Met complex (Homo sapiens, UniProt P62942); experiment: Co-immunoprecipitation of FKBP12 with anti-Met antibody; format: cell-based; conditions: 0.5 μM, 24 hours
# T10 construct: immunoprecipitated total cell lysates from everolimus-treated and -untreated 786-O cells; endogenous in cells; host or cells: 786-O (also 786-O EveR and HCT116)
# Protocol: as §1
# [6] = 786-O EveR and HCT116 cells, 1 μM (siRNA 50 nM)
# T10 sequence (P62942 2-108 limits assumed, one chain of several): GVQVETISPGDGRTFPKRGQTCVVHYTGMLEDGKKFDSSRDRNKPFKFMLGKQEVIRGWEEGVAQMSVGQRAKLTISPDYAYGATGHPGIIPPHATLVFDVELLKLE
# T8 sequence (P08581 25-1390): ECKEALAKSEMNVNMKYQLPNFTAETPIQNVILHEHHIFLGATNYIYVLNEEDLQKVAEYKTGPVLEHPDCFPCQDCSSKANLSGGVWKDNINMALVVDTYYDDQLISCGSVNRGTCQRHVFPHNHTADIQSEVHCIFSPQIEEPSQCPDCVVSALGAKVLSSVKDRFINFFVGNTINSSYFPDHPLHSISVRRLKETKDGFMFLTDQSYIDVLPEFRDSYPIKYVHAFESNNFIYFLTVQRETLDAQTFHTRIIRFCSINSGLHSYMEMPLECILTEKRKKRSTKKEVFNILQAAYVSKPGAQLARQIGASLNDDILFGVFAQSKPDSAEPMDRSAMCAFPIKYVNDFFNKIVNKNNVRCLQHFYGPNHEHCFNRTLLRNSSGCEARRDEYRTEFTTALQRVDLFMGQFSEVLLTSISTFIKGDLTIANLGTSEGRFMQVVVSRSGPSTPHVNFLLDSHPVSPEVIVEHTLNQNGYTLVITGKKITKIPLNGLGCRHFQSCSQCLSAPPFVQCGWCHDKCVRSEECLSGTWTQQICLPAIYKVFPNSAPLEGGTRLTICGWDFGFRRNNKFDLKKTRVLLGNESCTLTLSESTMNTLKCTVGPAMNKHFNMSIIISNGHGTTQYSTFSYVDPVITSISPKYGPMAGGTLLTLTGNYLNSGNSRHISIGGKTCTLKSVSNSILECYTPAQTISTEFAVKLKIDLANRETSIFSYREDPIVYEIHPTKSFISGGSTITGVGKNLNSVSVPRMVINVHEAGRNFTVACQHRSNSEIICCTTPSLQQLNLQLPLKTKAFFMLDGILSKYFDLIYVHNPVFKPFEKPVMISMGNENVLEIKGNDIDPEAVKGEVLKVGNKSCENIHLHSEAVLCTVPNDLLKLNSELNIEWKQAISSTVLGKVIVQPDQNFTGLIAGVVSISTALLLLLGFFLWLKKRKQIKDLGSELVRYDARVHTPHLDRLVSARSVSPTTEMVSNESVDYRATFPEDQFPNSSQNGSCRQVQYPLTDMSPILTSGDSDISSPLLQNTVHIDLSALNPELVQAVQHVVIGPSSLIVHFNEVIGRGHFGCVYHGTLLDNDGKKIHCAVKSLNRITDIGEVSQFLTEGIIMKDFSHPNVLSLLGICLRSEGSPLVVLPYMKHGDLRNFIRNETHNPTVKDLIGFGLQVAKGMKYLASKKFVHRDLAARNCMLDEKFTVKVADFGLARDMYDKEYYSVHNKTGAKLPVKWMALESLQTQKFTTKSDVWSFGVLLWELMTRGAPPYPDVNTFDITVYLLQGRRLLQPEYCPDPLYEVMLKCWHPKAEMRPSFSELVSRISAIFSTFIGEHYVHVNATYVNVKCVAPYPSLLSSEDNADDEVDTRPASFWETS
# T7 sequence (P08581 25-1390 D1228N): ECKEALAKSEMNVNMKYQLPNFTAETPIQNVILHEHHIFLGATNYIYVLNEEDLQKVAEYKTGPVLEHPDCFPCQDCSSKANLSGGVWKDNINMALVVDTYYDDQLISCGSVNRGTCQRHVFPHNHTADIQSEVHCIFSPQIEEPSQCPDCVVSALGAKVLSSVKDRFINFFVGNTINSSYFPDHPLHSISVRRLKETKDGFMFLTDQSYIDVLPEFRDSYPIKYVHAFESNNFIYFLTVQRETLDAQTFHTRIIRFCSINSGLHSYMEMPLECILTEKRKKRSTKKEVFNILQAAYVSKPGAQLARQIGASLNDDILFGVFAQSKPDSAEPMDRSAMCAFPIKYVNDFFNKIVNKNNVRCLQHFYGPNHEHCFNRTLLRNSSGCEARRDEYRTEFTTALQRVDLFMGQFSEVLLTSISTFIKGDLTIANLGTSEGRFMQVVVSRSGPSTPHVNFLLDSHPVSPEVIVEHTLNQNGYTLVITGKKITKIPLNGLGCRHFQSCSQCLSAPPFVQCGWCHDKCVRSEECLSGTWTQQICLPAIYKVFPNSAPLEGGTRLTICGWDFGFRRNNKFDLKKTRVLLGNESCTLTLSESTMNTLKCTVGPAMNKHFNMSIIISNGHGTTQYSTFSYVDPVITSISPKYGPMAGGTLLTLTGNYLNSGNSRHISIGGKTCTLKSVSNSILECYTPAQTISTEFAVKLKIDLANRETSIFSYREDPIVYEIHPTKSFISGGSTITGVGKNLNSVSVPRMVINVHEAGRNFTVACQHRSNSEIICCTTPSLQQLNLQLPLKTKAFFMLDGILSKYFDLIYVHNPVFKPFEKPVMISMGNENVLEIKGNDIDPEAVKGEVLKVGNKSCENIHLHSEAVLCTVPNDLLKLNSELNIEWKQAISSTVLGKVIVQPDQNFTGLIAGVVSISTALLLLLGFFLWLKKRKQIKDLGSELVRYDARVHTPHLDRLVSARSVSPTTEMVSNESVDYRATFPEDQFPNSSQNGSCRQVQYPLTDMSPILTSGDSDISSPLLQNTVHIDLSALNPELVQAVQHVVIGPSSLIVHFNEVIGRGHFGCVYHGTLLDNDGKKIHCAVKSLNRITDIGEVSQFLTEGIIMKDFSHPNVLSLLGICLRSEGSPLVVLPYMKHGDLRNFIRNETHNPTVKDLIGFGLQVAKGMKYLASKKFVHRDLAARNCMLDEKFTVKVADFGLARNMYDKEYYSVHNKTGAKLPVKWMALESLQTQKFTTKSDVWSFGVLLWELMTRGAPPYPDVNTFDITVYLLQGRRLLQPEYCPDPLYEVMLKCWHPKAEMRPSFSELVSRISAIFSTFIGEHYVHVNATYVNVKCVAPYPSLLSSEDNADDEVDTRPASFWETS
# T9 sequence (P08581 25-1390 Y1230C): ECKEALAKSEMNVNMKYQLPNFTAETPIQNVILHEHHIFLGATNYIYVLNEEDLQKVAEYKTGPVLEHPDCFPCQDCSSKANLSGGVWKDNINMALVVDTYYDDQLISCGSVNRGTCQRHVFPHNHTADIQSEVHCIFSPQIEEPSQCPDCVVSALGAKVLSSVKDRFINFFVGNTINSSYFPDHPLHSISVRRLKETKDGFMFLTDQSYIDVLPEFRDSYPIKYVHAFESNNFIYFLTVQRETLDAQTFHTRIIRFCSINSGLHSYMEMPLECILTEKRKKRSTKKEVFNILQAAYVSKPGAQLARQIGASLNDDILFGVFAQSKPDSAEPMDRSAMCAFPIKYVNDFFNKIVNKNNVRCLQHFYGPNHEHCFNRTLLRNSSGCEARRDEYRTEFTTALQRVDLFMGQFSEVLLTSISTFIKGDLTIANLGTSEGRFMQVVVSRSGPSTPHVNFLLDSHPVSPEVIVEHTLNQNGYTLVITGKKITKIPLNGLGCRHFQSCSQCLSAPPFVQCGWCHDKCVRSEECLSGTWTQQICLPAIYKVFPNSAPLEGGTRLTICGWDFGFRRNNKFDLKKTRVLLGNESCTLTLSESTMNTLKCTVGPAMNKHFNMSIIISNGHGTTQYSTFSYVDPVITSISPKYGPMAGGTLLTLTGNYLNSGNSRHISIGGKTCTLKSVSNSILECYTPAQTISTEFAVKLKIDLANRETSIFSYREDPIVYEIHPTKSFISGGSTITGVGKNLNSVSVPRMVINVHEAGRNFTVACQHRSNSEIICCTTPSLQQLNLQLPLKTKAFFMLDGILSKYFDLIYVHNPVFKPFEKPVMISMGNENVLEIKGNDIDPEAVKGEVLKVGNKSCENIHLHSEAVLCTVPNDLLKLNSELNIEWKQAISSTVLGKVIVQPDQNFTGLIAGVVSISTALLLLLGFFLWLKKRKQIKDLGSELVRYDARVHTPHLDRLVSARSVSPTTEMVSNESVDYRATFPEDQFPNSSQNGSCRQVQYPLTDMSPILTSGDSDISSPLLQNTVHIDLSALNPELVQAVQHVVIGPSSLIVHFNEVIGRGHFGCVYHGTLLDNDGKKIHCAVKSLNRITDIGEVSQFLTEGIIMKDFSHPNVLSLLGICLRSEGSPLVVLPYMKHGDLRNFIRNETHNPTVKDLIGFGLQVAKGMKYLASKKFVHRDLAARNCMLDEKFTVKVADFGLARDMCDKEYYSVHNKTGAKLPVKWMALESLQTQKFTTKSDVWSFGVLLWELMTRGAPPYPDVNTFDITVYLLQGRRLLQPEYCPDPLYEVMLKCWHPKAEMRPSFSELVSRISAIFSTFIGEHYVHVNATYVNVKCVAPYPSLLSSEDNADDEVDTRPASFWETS
structure (smiles),measurement,setting,value
COc1cccc2cc(-c3nc([C@H]4CC[C@H](C(=O)O)CC4)n4ncnc(N)c34)[nH]c12 [OSI-027],Met phosphorylation,phospho-Met; 786-O and MDA-MB-231 cells,neither PKI-587 nor OSI-027 inhibited Met phosphorylation
same,phospho-p70S6K,"phospho-p70S6K; 786-O and MDA-MB-231 cells, 0.5 μM",reduced phospho-p70S6K
CO[C@H]1C[C@@H]2CC[C@@H](C)[C@@](O)(O2)C(=O)C(=O)N2CCCC[C@H]2C(=O)O[C@H]([C@H](C)C[C@@H]2CC[C@@H](OCCO)[C@H](OC)C2)CC(=O)[C@H](C)/C=C(\C)[C@@H](O)[C@@H](OC)C(=O)[C@H](C)C[C@H](C)/C=C/C=C/C=C/1C [everolimus],pIC50,Met D1228H,< 5.00
same,pIC50,Met F1200I,< 5.00
same,pIC50,Met M1250T,< 5.00
same,pIC50,Met Y1230A,< 5.00
same,pIC50,Met Y1230D,< 5.00
same,pIC50,Met Y1230H,< 5.00
same,pIC50,Met D1228N,< 5.00
same,pIC50,Met Wild-type,< 5.00
same,pIC50,Met Y1230C,< 5.00
same,pIC50,[1],≤ 5.30
same,pIC50,786-O cells,≥ 6.30
same,pIC50,ACHN cells,≥ 6.30
same,pIC50,HCT116 cells,≤ 5.30
same,pIC50,MDA-MB-231 cells,≥ 6.30
same,pIC50,MDA-MB-361 cells,≥ 6.30
same,pIC50,NCI-H1975 cells,≥ 6.30
same,pIC50,PC-9 cells,≥ 6.30
same,pIC50,[2],< 6.30
same,pIC50,[3],< 6.30
same,pIC50,T47D cells with wt Met,< 6.30
same,tumor growth inhibition,"[4]; day 42, 6 weeks after cell injection, everolimus 5 mg/kg per os, PHA665752 20 mg/kg i.v., five times a week for 2 weeks",35%
same,Median survival,"[4]; subcutaneous HCT116 xenograft, 10 mice/group",37.5 days
same,tumor volume,[5],large tumors in the cecum and peritoneum
same,phosphorylation of Met,phospho-Met; [6],did not affect the phosphorylation of Met or p70S6K
same,Met phosphorylation,"phospho-Met; renal, breast and lung everolimus-sensitive cell lines",inhibition of Met phosphorylation
same,phosphorylation of p70S6K,phospho-p70S6K; [6],did not affect the phosphorylation of Met or p70S6K
same,p70S6K phosphorylation,"phospho-p70S6K; renal, breast and lung everolimus-sensitive cell lines, 0.5 μM",decreased p70S6K phosphorylation
same,amount of FKBP12 co-immunoprecipitated with Met,FKBP12/Met complex; 786-O cells,lower
same,amount of FKBP12 co-immunoprecipitated with Met,FKBP12/Met complex; everolimus-resistant 786-O EveR and HCT116 cells,not reduced
